Experimental data from US6864286B2, “Inhibitors of the EGF-receptor tyrosine kinase and methods for their use” (Parker Hughes Institute, priority 1998, dated 2005).

Tests used:
JAK1 = molecular target: T1, JAK1 (Homo sapiens, UniProt P23458); assay: Cell-free JAK1 immune complex kinase assay; format: biochemical; conditions: for effect on enzymatic activity of JAK1: at concentrations as high as 350 μM
T1 construct: made in house; host or cells: Sf21 insect cells (baculovirus)
Protocol: Immunoprecipitations, immune-complex protein kinase assays, and immunoblotting using the ECL chemiluminescence detection system (Amersham Life Sciences) were conducted as described previously (Vassilev, A., et al. J. Biol. Chem. 1998, in press; Goodman, P. A., et al. J. Biol. Chem. 1998, 273, 17742; Mahajan, S., et al. Mol. Cell. Biol. 1995, 15, 5304; Uckun, F. M., et al. Science 1996, 22, 1096).

[1] = test system: MDA-MB-231 breast cancer cells; assay: Flow cytometric apoptosis assay (MC540 binding / PI permeability); format: cell-based, human; conditions: for Apoptotic fraction [AF] with MC540+/PI+ advanced stage apoptosis: 24 hours
Text: Loose packing of membrane phospholipid head groups and cell shrinkage precede DNA fragmentation in apoptotic cells, thereby providing MC540 binding as an early marker for apoptosis (Uckun F. M., et al. Clin. Cancer Res. 1998, 4, 901-912; and Kuo, E. A. J. Med. Chem. 1996, 39, 4608-4621). Plasma membrane permeability to propidium iodide (PI, Sigma) develops at a later stage of apoptosis (Uckun F. M., et al. Clin. Cancer Res. 1998, 4, 901-912; and Kuo, E. A. J. Med. Chem. 1996, 39, 4608-4621). MC540 binding and PI permeability were simultaneously measured in breast cancer cells 24 hours after exposure to leflunomide analogs, as described (Uckun F. M., et al. Clin. Cancer Res. 1998, 4, 901-912. Stock solutions of MC540 and PI, each at 1 mg/mL, were passed through a 0.22 μm filter and stored at 4° C. in the dark. Shortly before analysis, suspensions containing 1×10^6 cells were suspended in 5 μg/mL MC540 and 10 μg/mL PI and kept in the dark at 4° C. Whole cells were analyzed with a FACS Calibur or FACS Vantage flow cytometer (Becton Dickinson, San Jose, Calif.). All analyses were done using 488 nm excitation from an argon laser. MC540 and PI emissions were split with a 600 nm short pass dichroic mirror and a 575 nm band pass filter was placed in front of one photomultiplier tube to measure MC540 emission and a 635 nm band pass filter was used for PI emission.
Loose packing of membrane phospholipid head groups and cell shrinkage precede DNA fragmentation in apoptotic cells, thereby providing MC540 binding as an early marker for apoptosis (Uckun, F. M. et al., Science, 1995, 267, 886-891). MC540 binding and propidium iodide (PI) permeability of MDA-MB-231 breast cancer cells were simultaneously measured before and after a 24 hour treatment with 100 μM or 500 μM LFM-A12. Whole cells were analyzed with a FACStar Plus flow cytometer (Becton Dickinson, San Jose, Calif.).

[2] = molecular target: T2, EGFR tyrosine kinase in MDA-MB-231 cells (Homo sapiens, UniProt P00533); assay: Cellular EGFR autophosphorylation, anti-phosphotyrosine Western blot; format: cell-based; conditions: 24 hour exposure
T2 construct: anti-EGFR immunoprecipitates from lysates of MDA-MB-231 human breast cancer cells; endogenous in cells; host or cells: MDA-MB-231 (ATCC HTB-26)
Protocol: For EGFR immune complex kinase assays, 24-hours after treatment with leflunomide analogs, MDA-MB-231 breast cancer cells were stimulated with 20 ng/mL EGF for 5 minutes, lysed in 1% Nonidet-P-40 buffer, and cell lysates were immunoprecipitated with an anti-EGFR antibody reactive with the sequence Ala^351-Asp^364 of the human EGFR (Upstate Biotechnology Inc. [UBI] Catalog # 05-104) (Uckun, F. M., et al. Clin. Can. Res. 1998, 4, 901). EGFR immune complexes were examined for tyrosine phosphorylation by Western blot analysis, as described by Uckun, F. M., et al. Clin. Can. Res. 1998, 4, 901. All anti-phosphotyrosine Western blots were subjected to densitometric scanning using the automated AMBIS system (Automated Microbiology System, Inc., San Diego, Calif.) and for each time point a % inhibition value was determined by comparing the density ratios of the tyrosine phosphorylated EGFR protein bands to those of the baseline sample and using the formula: % Inhibition=100−100×[Density of tyrosine phosphorylated EGFR band]test sample/[Density of tyrosine phosphorylated EGFR band]baseline control sample. The IC50 values were determined using an Inplot program (Graphpad Software, Inc., San Diego, Calif.).
The effects of LFM and LFM analogs on the enzymatic activity of the EGFR tyrosine kinase in breast cancer cells were also examined. […]

T1 sequence (P23458 whole entry, species assumed): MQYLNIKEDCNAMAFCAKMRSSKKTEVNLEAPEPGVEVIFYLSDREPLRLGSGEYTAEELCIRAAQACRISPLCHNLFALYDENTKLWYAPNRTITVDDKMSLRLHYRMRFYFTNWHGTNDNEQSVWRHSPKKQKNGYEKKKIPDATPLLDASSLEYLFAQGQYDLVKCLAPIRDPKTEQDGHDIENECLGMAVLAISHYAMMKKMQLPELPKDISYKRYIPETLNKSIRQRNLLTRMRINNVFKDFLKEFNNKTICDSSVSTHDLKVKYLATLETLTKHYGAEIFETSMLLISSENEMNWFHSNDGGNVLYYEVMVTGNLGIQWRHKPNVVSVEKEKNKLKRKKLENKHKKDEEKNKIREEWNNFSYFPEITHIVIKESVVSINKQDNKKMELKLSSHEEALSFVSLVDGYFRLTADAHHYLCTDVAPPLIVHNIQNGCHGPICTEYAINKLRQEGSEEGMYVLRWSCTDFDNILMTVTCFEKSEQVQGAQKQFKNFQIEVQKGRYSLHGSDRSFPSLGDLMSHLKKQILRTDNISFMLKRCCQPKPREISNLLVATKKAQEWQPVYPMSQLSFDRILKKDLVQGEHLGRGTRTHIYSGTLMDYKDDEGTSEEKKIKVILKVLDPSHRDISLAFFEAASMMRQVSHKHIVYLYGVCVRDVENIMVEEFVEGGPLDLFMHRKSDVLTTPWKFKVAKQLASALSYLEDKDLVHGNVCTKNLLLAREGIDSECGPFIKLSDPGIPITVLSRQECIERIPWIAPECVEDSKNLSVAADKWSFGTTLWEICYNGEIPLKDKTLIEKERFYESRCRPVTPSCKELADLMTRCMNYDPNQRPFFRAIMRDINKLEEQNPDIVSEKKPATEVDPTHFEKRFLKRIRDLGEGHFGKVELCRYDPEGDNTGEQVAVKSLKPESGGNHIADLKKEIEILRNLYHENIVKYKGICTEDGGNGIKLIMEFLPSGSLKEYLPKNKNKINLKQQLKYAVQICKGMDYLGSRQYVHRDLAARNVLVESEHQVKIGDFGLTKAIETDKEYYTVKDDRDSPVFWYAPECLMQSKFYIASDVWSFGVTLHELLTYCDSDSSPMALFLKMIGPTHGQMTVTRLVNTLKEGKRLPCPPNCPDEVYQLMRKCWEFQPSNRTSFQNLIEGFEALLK
T2 sequence (P00533 25-1210): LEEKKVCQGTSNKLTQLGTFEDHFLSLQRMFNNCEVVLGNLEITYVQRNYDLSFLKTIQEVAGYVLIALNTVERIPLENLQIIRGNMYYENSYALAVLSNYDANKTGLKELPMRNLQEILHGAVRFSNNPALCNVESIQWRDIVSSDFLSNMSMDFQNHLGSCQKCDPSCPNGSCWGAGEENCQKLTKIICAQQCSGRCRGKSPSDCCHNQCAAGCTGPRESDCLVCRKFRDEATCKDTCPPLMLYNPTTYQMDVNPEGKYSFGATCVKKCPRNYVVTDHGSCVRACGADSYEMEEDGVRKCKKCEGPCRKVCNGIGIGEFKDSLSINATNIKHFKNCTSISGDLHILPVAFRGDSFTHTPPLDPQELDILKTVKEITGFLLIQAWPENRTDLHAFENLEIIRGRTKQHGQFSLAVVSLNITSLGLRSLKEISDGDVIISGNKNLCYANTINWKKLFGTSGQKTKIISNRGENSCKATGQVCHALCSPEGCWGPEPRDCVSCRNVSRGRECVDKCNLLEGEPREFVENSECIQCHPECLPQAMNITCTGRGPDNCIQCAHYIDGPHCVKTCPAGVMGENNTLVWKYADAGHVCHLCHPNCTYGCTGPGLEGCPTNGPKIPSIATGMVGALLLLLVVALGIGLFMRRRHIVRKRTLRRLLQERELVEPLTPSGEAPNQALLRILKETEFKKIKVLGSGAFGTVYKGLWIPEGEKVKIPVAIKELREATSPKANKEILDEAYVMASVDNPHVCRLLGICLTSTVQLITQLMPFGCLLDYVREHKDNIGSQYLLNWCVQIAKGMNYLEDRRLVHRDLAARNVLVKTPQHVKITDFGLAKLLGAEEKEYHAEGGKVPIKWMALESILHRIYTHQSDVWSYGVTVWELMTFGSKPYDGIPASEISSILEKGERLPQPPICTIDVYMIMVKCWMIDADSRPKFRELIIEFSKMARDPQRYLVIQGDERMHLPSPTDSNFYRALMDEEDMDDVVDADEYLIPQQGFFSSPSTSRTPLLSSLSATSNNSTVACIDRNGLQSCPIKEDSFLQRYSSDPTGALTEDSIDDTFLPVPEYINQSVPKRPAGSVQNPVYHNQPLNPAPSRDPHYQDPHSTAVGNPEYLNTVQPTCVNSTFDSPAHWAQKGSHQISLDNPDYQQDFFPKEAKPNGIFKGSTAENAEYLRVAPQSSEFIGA

Compound: CC(O)=C(C#N)C(=O)Nc1ccc(C(F)(F)F)cc1 [LFM, α-Cyano-β-hydroxy-β-methyl-N-[4-(trifluoromethyl)phenyl]-propenamide, reference compound]
- effect on enzymatic activity of JAK1 (JAK1): did not affect the enzymatic activity
- induction of apoptosis ([1]; MDA-MB-231, 24 hours): albeit to a lesser extent, also induced apoptosis
- tyrosine phosphorylation of the EGFR after EGF stimulation [2]: to a lesser extent

Compound: C/C(O)=C(\C#N)C(=O)Nc1ccc(OC(F)(F)F)cc1 [LFM-A12, α-Cyano-β-hydroxy-β-methyl-N-[4-(trifluoromethoxy)phenyl]-propenamide]
- IC50 (JAK1; JAK1, cell-free, read-out: Inhibition IC50): > 175 µM
- effect on enzymatic activity of JAK1 (JAK1): did not affect the enzymatic activity
- Apoptotic fraction [AF] with MC540+/PI+ advanced stage apoptosis ([1]; MDA-MB-231, 100 μM): 54%
- Apoptotic fraction [AF] with MC540+/PI+ advanced stage apoptosis ([1]; MDA-MB-231, 500 μM): 85%
- tyrosine phosphorylation of the EGFR after EGF stimulation [2]: decreased tyrosine phosphorylation of the EGFR
